Where only a bound is given, the exact number is not on record here.

Data set [1] in a line: Apparent permeability across basolateral to apical side in MDCK-MDR1 cells 120 mins by LC-MS/MS analysis. To be noted: dog. It is filed as ADME, cell-based, Canis lupus familiaris.
Data set [2] in a line: Efflux ratio of apparent permeability across basolateral to apical over apical to basolateral side in MDCK-MDR1 cells. The format is ADME, cell-based, Canis lupus familiaris. To be noted: dog.
Data set [3] is described as follows: Apparent permeability across basolateral to apical side in MDCK-MDR1 cells assessed as drug recovery. The format is ADME, cell-based, Canis lupus familiaris. The settings on record: dog, read-out: Drug recovery.
Data set [4] in a line: Apparent permeability across apical to basolateral side in MDCK-MDR1 cells 120 mins by LC-MS/MS analysis. The format is ADME, cell-based, Canis lupus familiaris. The settings on record: dog.
The nature of data set [5]: Apparent permeability across apical to basolateral side in MDCK-MDR1 cells assessed as drug recovery. The format is ADME, cell-based, Canis lupus familiaris. The settings on record: dog, read-out: Drug recovery.
For data set [6], the target named is Prostaglandin E2 receptor EP2 subtype (Homo sapiens, UniProt P43116). The data set can be described thus: Agonist activity at human EP2 receptor expressed in HEK293T/17 cells assessed as increase in GalphaS-mediated CREB activation at 10 uM measured after 6 to 24 hrs by SEAP reporter gene-based chemiluminescence assay relative to control. It is filed as functional, cell-based. On the technique in general: In a reporter assay the amount or activity of a reporter protein is the signal.
Sequence of Prostaglandin E2 receptor EP2 subtype (P43116 whole entry): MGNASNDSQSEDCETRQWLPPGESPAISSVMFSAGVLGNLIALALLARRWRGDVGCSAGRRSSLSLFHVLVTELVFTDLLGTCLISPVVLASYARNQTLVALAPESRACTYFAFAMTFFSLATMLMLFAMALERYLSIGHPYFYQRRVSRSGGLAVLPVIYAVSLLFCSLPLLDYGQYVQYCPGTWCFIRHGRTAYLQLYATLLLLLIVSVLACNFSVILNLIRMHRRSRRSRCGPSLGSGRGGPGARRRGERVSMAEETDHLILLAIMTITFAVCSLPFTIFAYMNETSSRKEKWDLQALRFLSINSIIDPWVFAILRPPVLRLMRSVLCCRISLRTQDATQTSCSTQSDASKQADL

On to `CCC#CC[C@H](C)[C@H](O)/C=C/[C@H]1CC(F)(F)C(=O)N1CCCCCCC(=O)O`, for which the Papp B→A (usually the apparent permeability from the basolateral to the apical side of a cell layer) at 2 h in data set [1] worked out at 11.8 ×10⁻⁶ cm/s. For the same molecule, the efflux ratio – broadly, a quotient of directional permeabilities that is used to spot active efflux – in data set [2] was found to be 20. Also, the recovery in data set [3] was determined as 93%; in data set [5], 84%. The apical-to-basolateral permeability (Papp A→B) (commonly how fast a substance crosses the layer from the apical side) at 2 h in data set [4] came to 0.59 ×10⁻⁶ cm/s.
As to `CCC#CC[C@H](C)[C@H](O)/C=C/[C@H]1CCC(=O)N1CCCCCCC(=O)O`, the Activity in data set [6] is less than 50%.
